Here are results for one compound from patent US20090022772A1, “BIOABSORBABLE ELASTOMERIC ARTERIAL SUPPORT DEVICE AND METHODS OF USE” (MediVas, LLC, priority 2007, published 2009).

This data set can be described thus: Properties and self-adherence of PEA 4-Phe-4/EAC-2 mixture films, dry and after soaking in water. The class given is physicochemical. Details: key to Self-adherence: (—) means: no self-adherence observed. The conditions noted are these: for Self-adherence: folded film in water 24 hours. The text has this:
At the first stage, this Example addresses the question of whether invention cross-linking agents can be used as plasticizers without causing the composition to undesirably adhere to the surface of other materials (for example, steel, and other medical device surfaces).

For `C=C(C)C(=O)NC(Cc1ccccc1)C(=O)OCCCCCCOC(=O)C(Cc1ccccc1)NC(=O)C(=C)C` [Phe-6-MA, dimethacrylate of bis(L-Phe)-1,6-hexanediol diester], the Self-adherence result reads like this: (PEA 4-Phe-4/EAC-2 40/60 w/w) “—”; (PEA 4-Phe-4/EAC-2 60/40 w/w) “—”; (PEA 4-Phe-4/EAC-2 80/20 w/w) “—”. Further, the “Film properties, Dry” value (PEA 4-Phe-4/EAC-2 60/40 w/w) is given as “Hard” and the “Film properties, Dry” value (PEA 4-Phe-4/EAC-2 80/20 w/w) was “Hard”. Further, the “Film properties, Wet” value (PEA 4-Phe-4/EAC-2 60/40 w/w, pre-soaked in water at room temperature for 24 hours) is recorded as “Elastic”.
